Results from patent US20190117555A1, “SUBLINGUAL COMPOSITIONS COMPRISING NATURAL EXTRACTS AND USES THEREOF” (HARMONIC PHARMA, priority 2016, published 2019).

Assays:
[1] = Trolox Equivalent Antioxidant Capacity (TEAC) assay; settings: per 1 g of product; FIG. 2
Protocol: Trolox Equivalent Antioxidant Capacity (TEAC) Assay
ABTS radical cation (ABTS•+) was produced by reacting 7 mM ABTS stock solution with 2.45 mM potassium persulfate and allowing the mixture to stand in the dark at room temperature for 12-16 h before being used. Next ABTS•+solution was diluted with PBS (Phosphate Buffer Saline) (pH 7.4) to an absorbance of 0.5 at 734 nm and equilibrated at 30° C. 200 μl of ABTS•+ and (10, 20, 35, 50, 70, 80 μl) of product solutions (0.5 mg/L) was mixed and adjusted to 300 μl with buffer solution. After 15 min incubation, the optical density was measured. The assays were performed in quadruplicate (n=4). Efficacy is expressed as a value of EC50 (the smaller value of EC50 corresponds to the stronger antioxidant activity).

[2] = Oxygen Radical Absorbance Capacity (ORAC) assay; settings: n=4
Source text: 2.3. Oxygen Radical Absorbance Capacity (ORAC) Assay
(Ou B., Hampsch-Woodill M. and Prior R. L.: “Development and Validation of an Improved Oxygen Radical Absorbance Capacity Assay Using Fluorescein as the Fluorescent Probe”, J. Agric. Food Chem., 2001, 49 (10), 4619-4626)
Measurement of antioxidant capacity by the ORAC method is based on the detection of fluorescence drop of fluorescein (FL) thanks to its reaction with peroxyl radical ROO*, in a food matrix containing antioxidant compounds. Fluorescence was read with an excitation wavelength of 485 nm and an emission filter of 528 nm. AAPH solution and FL were prepared in a phosphate buffer solution at 75 mM at pH 7.4. The control of this reaction is the trolox which is also prepared in the same buffer. Six different quantities (10, 20, 35, 50, 70, 80 μl) of product with concentration of 0.5 mg/L were placed in the wells of the microplate with FL and adjusted at the same volume with buffer solution (80 μl). The mixture was preincubated for 30 min at 37° C., before rapidly adding the AAPH solution (220 μl) using a multichannel pipette. The microplate was immediately placed in the reader and the fluorescence recorded every 6 min for 240 min. A blank with FL and AAPH using sodium phosphate buffer instead of the antioxidant solution was used. The inhibition capacity was expressed as reference compound equivalents (μM), and is quantified by integrating of the area under the curve (AUC) of the fluorescein. The assays were carried out in quadruplicate (n=4). Efficacy of the tested samples is expressed as reference ORAC units per gram of products (the higher value corresponds to the stronger antioxidant activity).

[3] = Total AntiOxidant Power (PAOT) assay; settings: for total antioxidant efficacy (PAOT): n=4, FIG. 3 and 4
Protocol: 2.4. Total AntiOxidant Power (PAOT®) Assay (Oxidative Stress)
Technology PAOT/POT® (Total AntiOxidant Power/Total Oxidant Power) is based on the electrochemical nature of redox reactions: a balance between antioxidants and oxidants [www.ie-antioxydants.com]. The assays were carried out in quadruplicate (n=4) (The higher value corresponds to the best antioxidant efficacy).

IL-1β = IL-1β release by LPS-stimulated PBMCs (HTRF); format: cell-based; settings: Homo sapiens, PBMC, 5 μg/mL LPS, 24 h, read-out: % inhibition IL-1β (Standard deviation)
Protocol: (§1) Interleukin-1beta (IL-1beta) and tumor necrosis factor-alpha (TNF-alpha) mediate the development of numerous inflammatory diseases. IL-1beta and TNF-alpha therefore constitute suitable biomarkers to characterize the anti-inflammatory property of compounds of the part of branch extracts of the invention.
(§2) Peripheral blood mononuclear cells (PBMCs) were prepared from the peripheral blood of healthy donors (Etablissement Français du Sang) according to Kümmerle et al. (J Med Chem. 2012, 55, 7525-7545) with slight modifications. PBMCs were isolated using Histopaque gradient (Sigma), washed in Hanks' balanced salt solution (Sigma) and were then cultured in RPMI-1640 medium (Sigma) supplemented with 10% (v/v) fetal bovine serum (FBS) (PAA), 100 U/mL penicillin and 100 μg/mL streptomycin (PAA). PBMCs were seeded into 96-well plates (8×10^4 cells/well) and stimulated with 5 μg/mL LPS (Lipopolysaccharides, Sigma), into a total volume of 120 μL per well. HMR was re-suspended in DMSO and tested at 10, 30, and 100 μM (DMSO 1%) in duplicate. […] Cells incubation was realized at 37° C. (5% CO2).
(§3) After 24 h, PBMCs supernatants were transferred into a 384-well plate. Cytokine detection was performed using HTRF technology (Cisbio bioassays) for TNF-α (62TNFPEC), IL-1β (62IL1PEC) according to supplier recommendations. Reading was performed after 3 h of incubation using Envision multi-labelled reader (PerkinElmer) using supplier recommended parameters.

Human COX-2 = target: T1, Human COX-2 (Homo sapiens, UniProt P35354); assay: Human COX-2 inhibition assay; format: biochemical; settings: HMR 10 μM; extract equiv. 10 μM
T1 sequence (P35354 18-604): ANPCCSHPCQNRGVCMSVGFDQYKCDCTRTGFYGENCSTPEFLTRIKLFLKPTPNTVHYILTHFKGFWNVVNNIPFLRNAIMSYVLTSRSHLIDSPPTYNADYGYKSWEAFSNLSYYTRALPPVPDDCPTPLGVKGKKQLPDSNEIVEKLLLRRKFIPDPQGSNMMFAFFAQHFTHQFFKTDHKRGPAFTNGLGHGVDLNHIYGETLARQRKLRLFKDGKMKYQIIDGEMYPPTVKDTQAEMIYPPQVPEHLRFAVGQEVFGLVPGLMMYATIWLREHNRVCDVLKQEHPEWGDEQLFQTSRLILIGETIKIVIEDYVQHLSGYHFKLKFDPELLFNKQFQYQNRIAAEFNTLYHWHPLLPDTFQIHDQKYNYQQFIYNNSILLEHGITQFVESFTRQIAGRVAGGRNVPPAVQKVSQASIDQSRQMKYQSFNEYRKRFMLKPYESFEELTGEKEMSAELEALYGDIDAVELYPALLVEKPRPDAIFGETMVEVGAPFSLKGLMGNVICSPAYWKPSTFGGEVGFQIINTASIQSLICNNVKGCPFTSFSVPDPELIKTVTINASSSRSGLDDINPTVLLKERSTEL
Source text: The results are expressed as a percent inhibition of the control enzyme activity.

Human 5-LO = target: T2, Human 5-LO (Homo sapiens, UniProt P09917); assay: Human 5-LO inhibition assay; format: biochemical; settings: HMR 10 μM; extract equiv. 10 μM
T2 sequence (P09917 1-674): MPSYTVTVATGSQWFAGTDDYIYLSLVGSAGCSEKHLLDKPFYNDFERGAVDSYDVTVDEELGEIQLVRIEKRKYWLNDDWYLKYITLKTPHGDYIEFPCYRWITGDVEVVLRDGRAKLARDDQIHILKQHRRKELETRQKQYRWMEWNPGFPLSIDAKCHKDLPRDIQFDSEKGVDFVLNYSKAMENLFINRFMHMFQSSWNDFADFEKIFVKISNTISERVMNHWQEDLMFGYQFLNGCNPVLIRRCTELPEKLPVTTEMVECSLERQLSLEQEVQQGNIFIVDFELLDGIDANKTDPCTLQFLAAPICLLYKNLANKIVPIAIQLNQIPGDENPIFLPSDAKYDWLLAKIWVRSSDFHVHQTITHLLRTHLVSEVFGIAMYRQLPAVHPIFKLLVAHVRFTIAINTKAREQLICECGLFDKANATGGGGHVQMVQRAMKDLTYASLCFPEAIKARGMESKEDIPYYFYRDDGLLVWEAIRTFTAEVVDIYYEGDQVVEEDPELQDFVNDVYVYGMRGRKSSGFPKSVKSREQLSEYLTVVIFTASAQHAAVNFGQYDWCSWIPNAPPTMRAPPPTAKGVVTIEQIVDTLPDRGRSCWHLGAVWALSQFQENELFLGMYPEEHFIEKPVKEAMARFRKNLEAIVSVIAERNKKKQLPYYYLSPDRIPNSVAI
Protocol: Human 5-LO Inhibition Assay:
The test compound, reference compound or water (control) were preincubated for 5 min at room temperature with 10^4 lysed cells/well in a buffer containing 50 mM Tris-HCl (pH 7.4), 5 mM CaCl2, 2 mM EDTA, 1 μM ATP and 50 nM fluorescent probe dihydrorhodamine 123. The fluorescence intensity was then measured at λex=485 nm and λem=535 nm using a microplate reader (Envision, Perkin Elmer). This measurement at t=0 allowed the detection of any compound interference with the fluorimetric detection method at these wavelengths. Thereafter, the reaction was initiated by adding 25 μM of the substrate arachidonic acid and the mixture was incubated for 20 min at room temperature. The reaction was stopped by adding a buffer containing 67% acetonitrile and 0.2% acetic acid and the fluorescence intensity emitted by the reaction product rhodamine 123 was measured at the same wavelengths (t=20). The enzyme activity was determined by subtracting the signal measured at t=0 from that measured at t=20.
The results are expressed as a percent inhibition of the control activity.

TNF-α = TNF-α release by LPS-stimulated PBMCs (HTRF); format: cell-based; settings: Homo sapiens, PBMC, 5 μg/mL LPS, 24 h, read-out: % inhibition TNF-α (Standard deviation)
Protocol: as §1, §2, §3

inhibition at 10 µM (Human COX-2)	inhibition at 10 µM (Human 5-LO)	Compound	antioxidant activity of 1 g of product equivalent to g of trolox [1]	antioxidant activity of 1 g of product equivalent to g of vitamin E [1]	μmol Trolox/g tested product [2]	μmol Vit. C/g tested product [2]	μmol Vit. E/g tested product [2]	μmol β-carotene/g tested product [2]	total antioxidant efficacy (PAOT) [3]	inhibition at 10 µM (IL-1β; 10 μM)	inhibition at 30 µM (IL-1β; 30 μM)	inhibition at 100 µM (IL-1β; 100 μM)	antioxidant activity with regard to Trolox ([3]; reference Trolox)	antioxidant activity with regard to Vitamin E ([3]; reference Vitamin E (tocopherol))	antioxidant activity with regard to β-carotene ([3]; reference β-carotene)	inhibition at 10 µM (TNF-α; 10 μM)	inhibition at 30 µM (TNF-α; 30 μM)	inhibition at 100 µM (TNF-α; 100 μM)
		OC[C@H](Cc1cccc(O)c1)[C@H](CO)Cc1cccc(O)c1 [enterodiol]	0.15 g	0.22 g	500 ± 60 μmol Trolox/g tested product	700 ± 100 μmol Vit. C/g tested product	600 ± 80 μmol Vit. E/g tested product	165 ± 5 μmol β-carotene/g tested produ	1.07 mmol/g equivalent of antioxidant									
		O=C1OC[C@H](Cc2cccc(O)c2)[C@H]1Cc1cccc(O)c1 [enterolactone]	0.13 g	0.19 g	560 ± 50 μmol Trolox/g tested product	110 ± 10 μmol Vit. C/g tested product	105 ± 10 μmol Vit. E/g tested product	30 ± 2 μmol β-carotene/g tested produ	1.06 mmol/g equivalent of antioxidant									
18.7%	14.7%	COc1cc(C[C@H]2C(=O)OC[C@@H]2[C@H](O)c2ccc(O)c(OC)c2)ccc1O (stereo in doubt) [HMR, Hydroxymatairesinol]			210 ± 50 μmol Trolox/g tested product	110 ± 10 μmol Vit. C/g tested product	105 ± 10 μmol Vit. E/g tested product	27 ± 2 μmol β-carotene/g tested produ	4.99 mmol/g equivalent of antioxidant	10%	25%	28%	0.62 gram of reference compound per gram of tested product	1.07 gram of reference compound per gram of tested product	2.68 gram of reference compound per gram of tested product	7%	15%	26%
